Reference: patent publication US20210380548A1, “Fused [1,2,4]Thiadiazine Derivatives Which Act as KAT Inhibitors of the MYST Family” (CTxT Pty Limited, priority 2017, published 2021)
pIC50: −log10 of the molar value.

What was measured:
MOZ-KAT6A [1] = molecular target: T1, MOZ-KAT6A (Homo sapiens, UniProt Q92794, A567V); test: Acetyltransferase biochemical assay (AlphaScreen), KAT6A; details: Table 2 (MOZ-KAT6A); 10 μM Acetyl coenzyme A, histone H3.1, 5 nM enzyme
T1 construct: encoding amino acid residues 507 to 778 (Uniprot Q92794-1) of human KAT6A; made in house; host or cells: E. coli BL21 DE3

[2] = system: histone H3K14 acetylation (HBO1 mediated) in U2OS cells; test: Histone H3 Lysine 14 Acetylation Biomarker Assay (96 well, U2OS); assay type: cell-based; details: Table 6, H3K14ac, 24 hours incubation, serum free medium
Method: Compounds may be tested for their ability to inhibit acetylation of the histone H3K14 marker (which is HBO1 mediated) in the following assay:
The cell line U2OS was seeded at a density of 12,000 cells per well in 96 well optical quality tissue culture plates in RPMI medium and 10% foetal bovine serum, and allowed to adhere for 24 hours under standard culture conditions (37 degree Celsius, 5% CO2). At the end of this period the cells were washed with serum free medium. Compound dilutions prepared in DMSO were added to the serum free medium, with negative control wells reserved for treatment with DMSO only and positive controls receiving a potent inhibitor compound (e.g. Example 36 in WO2016/198507) at 10 μM concentration. After incubation for 24 hours, the cells were fixed with 3.7% formaldehyde in PBS for 20 minutes at room temperature, washed with phosphate buffer saline containing 0.1% Tween 20 and blocked with Odyssey blocking buffer (LI-COR, Lincoln, Nebr.) containing 0.1% TritonX100. Anti-H3K14ac specific antibody (Cell Signalling Technologies) in Odyssey blocking buffer containing 0.1% Tween 20 was added and incubated for 14 hours at 4 degree Celsius. After washing, a secondary antibody labelled with Alexa647 dye (LifeTechnologies) and Hoechst 33342 (1 μg/mL, SigmaAldrich) were added for 1 hour incubation. Plates were washed and read on a PerkinElmer Phenix high content imaging platform. Using a Columbus image analysis pipeline, individual nuclei were located by Hoechst 33342 stain and the acetylation level was calculated from the Alexa647-related intensity in the same area. The resulting mean intensity per cell was directly converted to percent inhibition relative to controls on the same plate and the data fitted against a four-parameter logistic model to determine the 50% inhibitory concentration (IC50).

MOF-KAT8 [3] = molecular target: T2, MOF-KAT8 (Homo sapiens, UniProt Q9H7Z6); test: Acetyltransferase biochemical assay (AlphaScreen), KAT8; details: Table 4 (MOF-KAT8); 0.4 μM Acetyl coenzyme A, histone H4, 20 nM enzyme
T2 sequence (Q9H7Z6 177-447): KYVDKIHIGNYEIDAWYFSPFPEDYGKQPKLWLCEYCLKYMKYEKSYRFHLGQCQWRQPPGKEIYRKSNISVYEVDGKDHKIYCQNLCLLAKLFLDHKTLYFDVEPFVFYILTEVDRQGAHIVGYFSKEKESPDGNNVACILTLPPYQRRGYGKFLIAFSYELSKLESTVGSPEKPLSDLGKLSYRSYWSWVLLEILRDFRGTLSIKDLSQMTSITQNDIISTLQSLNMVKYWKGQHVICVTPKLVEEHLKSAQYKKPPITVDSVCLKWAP

HBO-KAT7 [4] = molecular target: T3, HBO-KAT7 (Homo sapiens, UniProt O95251); test: Acetyltransferase biochemical assay (AlphaScreen), KAT7; details: Table 3 (HBO-KAT7); 0.4 μM Acetyl coenzyme A, histone H3.1, 40 nM enzyme
T3 construct: encoding amino acid residues 325 to 611 (Uniprot 095251-1) of human KAT7; made in house; host or cells: E. coli BL21 DE3 RIL

TIP60-KAT5 [5] = molecular target: T4, TIP60-KAT5 (Homo sapiens, UniProt Q92993); test: Acetyltransferase biochemical assay (AlphaScreen), KAT5; details: Table 1 (TIP60-KAT5); 0.4 μM Acetyl coenzyme A, histone H4, 10 nM enzyme
T4 construct: encoding amino acid residues 2 to 461 (Uniprot Q92993-2) of human KAT5 isoform; made in house; host or cells: E. coli BL21 DE3

MOF-KAT8 [6] = molecular target: T2, MOF-KAT8; test: Revised Acetyltransferase Biochemical Assay, KAT8
MOZ-KAT6A [7] = molecular target: T1, MOZ-KAT6A; test: Revised Acetyltransferase Biochemical Assay, KAT6A; details: Table 8 (MOZ-KAT6A), 1 μM Acetyl coenzyme A
[8] = system: histone H3K23 acetylation (KATE mediated) in U2OS cells; test: Histone H3 Lysine 23 Acetylation Biomarker Assay (U2OS); assay type: cell-based; details: Homo sapiens, 96 well, 24 hours incubation
Summary of the method: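 U2OS cells were treated with compound for 24 h, then fixed and immunostained for H3K23ac with Hoechst nuclear counterstain. Per-nucleus Alexa647 intensity was quantified by high-content imaging and converted to % inhibition against DMSO and 10 μM reference-inhibitor controls. IC50 was derived from a four-parameter logistic fit.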

TIP60-KAT5 [9] = molecular target: T4, TIP60-KAT5; test: Revised Acetyltransferase Biochemical Assay, KAT5; details: 10 nM KAT5, 1 μM AcCoA, 100 nM histone H4, 90 min
QKF-KAT6B = molecular target: T5, QKF-KAT6B (Homo sapiens, UniProt Q8WYB5); test: Revised Acetyltransferase Biochemical Assay, KAT6B; details: 8 nM KAT6B, 1 μM AcCoA, 100 nM histone H3.1, 90 min
T5 construct: purchased SignalChem K315-381BG
Source text: KAT6B was obtained from SignalChem, catalog ID: K315-381BG

HBO-KAT7 [10] = molecular target: T3, HBO-KAT7; test: Revised Acetyltransferase Biochemical Assay, KAT7; details: Table 9 (HBO-KAT7), 1 μM Acetyl coenzyme A

T1 sequence (Q92794 507-778 A567V limits assumed): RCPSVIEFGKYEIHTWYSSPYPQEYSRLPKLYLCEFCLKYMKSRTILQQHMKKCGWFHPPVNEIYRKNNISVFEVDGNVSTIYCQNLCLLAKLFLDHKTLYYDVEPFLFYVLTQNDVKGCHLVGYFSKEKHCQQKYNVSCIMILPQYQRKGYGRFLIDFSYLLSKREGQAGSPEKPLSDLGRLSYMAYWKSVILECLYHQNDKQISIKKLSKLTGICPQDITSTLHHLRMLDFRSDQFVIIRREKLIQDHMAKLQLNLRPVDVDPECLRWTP
T3 sequence (O95251 with tags, fused parts or gaps): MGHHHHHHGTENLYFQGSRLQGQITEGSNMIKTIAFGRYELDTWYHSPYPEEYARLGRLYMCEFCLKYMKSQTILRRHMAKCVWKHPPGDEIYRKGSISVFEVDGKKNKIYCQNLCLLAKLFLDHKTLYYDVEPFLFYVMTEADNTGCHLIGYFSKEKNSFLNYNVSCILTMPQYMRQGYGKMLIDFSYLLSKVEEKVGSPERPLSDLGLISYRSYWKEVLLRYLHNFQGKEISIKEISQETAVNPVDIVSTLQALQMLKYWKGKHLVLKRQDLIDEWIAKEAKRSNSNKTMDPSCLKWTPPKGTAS
T5 sequence (Q8WYB5 whole entry): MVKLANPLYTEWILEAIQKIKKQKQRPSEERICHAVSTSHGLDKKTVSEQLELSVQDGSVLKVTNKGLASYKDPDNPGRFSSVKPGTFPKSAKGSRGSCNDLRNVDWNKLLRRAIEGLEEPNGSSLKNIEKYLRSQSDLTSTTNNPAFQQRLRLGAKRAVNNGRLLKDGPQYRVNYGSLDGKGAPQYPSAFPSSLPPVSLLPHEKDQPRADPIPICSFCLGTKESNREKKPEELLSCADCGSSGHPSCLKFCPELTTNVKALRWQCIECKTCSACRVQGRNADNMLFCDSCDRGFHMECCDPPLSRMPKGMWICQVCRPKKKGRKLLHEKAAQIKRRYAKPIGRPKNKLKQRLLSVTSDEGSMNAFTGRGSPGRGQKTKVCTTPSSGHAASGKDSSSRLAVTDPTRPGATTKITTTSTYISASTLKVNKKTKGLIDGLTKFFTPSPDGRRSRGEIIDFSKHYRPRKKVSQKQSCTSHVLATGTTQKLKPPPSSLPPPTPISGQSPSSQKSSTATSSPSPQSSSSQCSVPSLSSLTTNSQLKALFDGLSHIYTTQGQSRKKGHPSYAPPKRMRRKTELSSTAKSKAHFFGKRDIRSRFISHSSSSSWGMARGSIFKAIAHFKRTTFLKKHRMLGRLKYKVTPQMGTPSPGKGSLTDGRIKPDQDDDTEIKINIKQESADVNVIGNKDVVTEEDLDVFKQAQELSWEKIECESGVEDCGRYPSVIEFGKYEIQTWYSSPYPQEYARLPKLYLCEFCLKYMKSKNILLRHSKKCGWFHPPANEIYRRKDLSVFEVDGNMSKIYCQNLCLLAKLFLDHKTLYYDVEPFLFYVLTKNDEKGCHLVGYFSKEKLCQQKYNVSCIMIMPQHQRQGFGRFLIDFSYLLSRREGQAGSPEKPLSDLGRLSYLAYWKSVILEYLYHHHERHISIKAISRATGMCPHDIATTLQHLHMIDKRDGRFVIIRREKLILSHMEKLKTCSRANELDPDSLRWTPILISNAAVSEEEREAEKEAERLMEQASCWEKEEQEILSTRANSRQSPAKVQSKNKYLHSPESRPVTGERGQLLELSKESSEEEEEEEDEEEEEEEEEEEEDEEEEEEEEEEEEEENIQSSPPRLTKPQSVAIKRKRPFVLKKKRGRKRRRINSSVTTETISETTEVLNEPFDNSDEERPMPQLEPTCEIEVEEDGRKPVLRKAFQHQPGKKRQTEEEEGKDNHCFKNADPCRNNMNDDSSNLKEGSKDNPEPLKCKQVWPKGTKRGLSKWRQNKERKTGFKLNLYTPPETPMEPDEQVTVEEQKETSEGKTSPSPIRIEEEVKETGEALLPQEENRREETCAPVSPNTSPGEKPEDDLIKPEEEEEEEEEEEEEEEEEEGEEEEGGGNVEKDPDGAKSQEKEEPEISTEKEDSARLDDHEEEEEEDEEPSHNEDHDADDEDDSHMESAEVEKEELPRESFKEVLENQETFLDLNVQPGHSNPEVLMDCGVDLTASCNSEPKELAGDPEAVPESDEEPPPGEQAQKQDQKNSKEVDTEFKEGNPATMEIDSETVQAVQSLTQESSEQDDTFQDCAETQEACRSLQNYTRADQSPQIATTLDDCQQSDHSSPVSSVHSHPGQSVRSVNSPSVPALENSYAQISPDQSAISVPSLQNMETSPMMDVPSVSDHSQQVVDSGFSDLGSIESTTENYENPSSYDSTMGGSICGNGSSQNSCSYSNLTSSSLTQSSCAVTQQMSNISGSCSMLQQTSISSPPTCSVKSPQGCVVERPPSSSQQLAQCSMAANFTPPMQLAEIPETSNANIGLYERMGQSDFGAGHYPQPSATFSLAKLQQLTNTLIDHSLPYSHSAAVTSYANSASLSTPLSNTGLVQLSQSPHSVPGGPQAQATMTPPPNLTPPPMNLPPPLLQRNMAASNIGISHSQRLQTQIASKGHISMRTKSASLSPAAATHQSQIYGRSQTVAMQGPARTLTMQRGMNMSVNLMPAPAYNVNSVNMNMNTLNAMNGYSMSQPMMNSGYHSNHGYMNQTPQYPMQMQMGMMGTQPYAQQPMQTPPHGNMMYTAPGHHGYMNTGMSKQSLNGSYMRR
T4 sequence (Q92993 2-461 isoform Q92993-2): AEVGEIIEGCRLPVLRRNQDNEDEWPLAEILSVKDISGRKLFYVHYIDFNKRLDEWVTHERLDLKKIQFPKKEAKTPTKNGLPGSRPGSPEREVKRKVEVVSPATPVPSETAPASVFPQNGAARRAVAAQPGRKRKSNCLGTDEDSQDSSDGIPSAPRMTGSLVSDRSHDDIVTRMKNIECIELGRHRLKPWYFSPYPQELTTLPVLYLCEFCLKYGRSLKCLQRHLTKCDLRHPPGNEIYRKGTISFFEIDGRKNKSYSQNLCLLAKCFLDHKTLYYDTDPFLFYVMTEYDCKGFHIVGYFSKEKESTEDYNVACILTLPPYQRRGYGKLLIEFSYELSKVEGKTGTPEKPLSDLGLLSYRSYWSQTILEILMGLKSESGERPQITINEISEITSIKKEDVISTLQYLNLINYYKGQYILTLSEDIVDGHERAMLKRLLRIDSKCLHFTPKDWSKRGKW

SMILES | pIC50 (MOZ-KAT6A [1]) | pIC50 [2] | pIC50 (MOF-KAT8 [3]) | pIC50 (HBO-KAT7 [4]) | pIC50 (TIP60-KAT5 [5]) | pIC50 (MOF-KAT8 [6]) | pIC50 (MOZ-KAT6A [7]) | pIC50 [8] | pIC50 (TIP60-KAT5 [9]) | pIC50 ([2]; Homo sapiens, 24 h) | pIC50 (QKF-KAT6B) | pIC50 (HBO-KAT7 [10])
O=C(NCC(c1ccccc1)c1ncco1)C1=Nc2ccccc2S(=O)(=O)N1 (single isomer, unassigned) [Example 136] | 5.10 | 5.10 | < 3.90 | 6.20 | 4.56 |  |  |  |  |  |  | 
[C-]#[N+]c1ccc2c(c1)S(=O)(=O)NC(C(=O)NCC(c1ccccc1)c1ncco1)=N2 (single isomer, unassigned) [Example 142] | 7.68 | 4.76 | 4.25 | 5.18 | 5.37 |  |  |  |  |  |  | 
[C-]#[N+]c1ccc2c(c1)S(=O)(=O)NC(C(=O)NCC(c1ccccc1)c1ncco1)=N2 (single isomer, unassigned) [Example 143] | 6.46 | 4.84 | 4.52 | 5.76 | 4.86 |  |  |  |  |  |  | 
O=C(NCC(c1ccccc1)c1ncco1)C1=Nc2ccc(O)cc2S(=O)(=O)N1 (stereo not shown) [Example 8, 7-Hydroxy-N-(2-(oxazol-2-yl)-2-phenylethyl)-2H-benzo[e][1,2,4]thiadiazine-3-carboxamide 1,1-dioxide] |  |  |  | 5.92 | 5.36 | 4.98 | 7.96 | 5.23 | 5.70 | 5.01 | 6.68 | 6.87
O=C(NCC(c1ccccc1)c1ncco1)C1=Nc2ccc(F)cc2S(=O)(=O)N1 (stereo not shown) [Example 36, 7-fluoro-N-(2-(oxazol-2-yl)-2-phenylethyl)-2H-benzo[e][1,2,4]thiadiazine-3-carboxamide 1,1-dioxide] | 6.18 |  |  | 6.27 | 4.71 |  | 7.13 | 6.58 | 5.26 | 5.00 | 6.14 | 5.47
Cc1noc(C(CNC(=O)C2=Nc3ccc(I)cc3S(=O)(=O)N2)c2ccccc2)n1 (stereo not shown) [Example 56] | 7.09 |  |  | 6.66 | 6.57 | 5.89 | 8.00 |  | 7.21 | 6.19 |  | 7.20
O=C(NCC(c1ccccc1)n1cccn1)C1=Nc2ccc(Br)cc2S(=O)(=O)N1 (stereo not shown) [Example 84] | 6.59 |  | 4.48 | 7.08 | 6.11 | 4.11 | 7.77 |  | 6.37 | 6.12 |  | 7.21
O=C(NCCc1ccccc1OC(F)(F)F)C1=Nc2ccc(I)cc2S(=O)(=O)N1 [Example 92] | 6.11 |  | 4.66 | 6.17 | 6.44 |  |  |  |  | 5.86 |  | 
O=C(NCCc1ccccc1)C1=Nc2ccc(I)cc2S(=O)(=O)N1 [Example 93] | 5.66 |  |  | 5.02 | 5.04 | < 3.90 | 7.01 | < 5.00 | 5.70 | 4.52 | 5.75 | 5.75
O=C(NCCc1ccccc1OC(F)F)C1=Nc2ccc(Br)cc2S(=O)(=O)N1 [Example 115] | 6.32 |  | 4.51 | 6.64 | 6.37 |  |  |  |  | 5.97 |  | 
